Results taken from patent publication US12110287B2, “Heterocyclic derivatives as Nav1.7 and Nav1.8 blockers” (RaQualia Pharma Inc., priority 2018, dated 2024).

Assays:
Type in all cases: cell-based
[1] = target: Nav1.7 (Homo sapiens, UniProt Q15858); assay: EFS-FRET assay; design: expressed in transfected cells; host or cells: CHO (Chinese hamster ovary) cells; conditions: CHO cells expressing human Nav1.7 channels, read-out: IC50 against Nav1.7
Method: This screen is used to determine the effects of compounds on human Nav1.7 channels, utilizing electrical field stimulation (EFS) system in 96-well plate format on FDSS (Hamamatsu Photonics) platform. The changes of membrane potential are monitored with FRET dye pair, DiSBAC2(3) and PTS18.
CHO (Chinese hamster ovary) cells expressing human Nav1.7 channels are grown in T225 flasks, in a 5% CO2 humidified incubator to about 80% confluence. Media composition consists of HAM/F12 with Glutamax I, 10% FCS, 100 units/mF penicillin and 100 microgram/mF hygromycin.
• Seed each cell lines (1×10^5 cells/well) into 96-well plates prior to experimentation. • Incubate at 37° C. in 5% CO2 for 24 hours. • Wash each well with assay buffer (140 mM NaCl, 4.5 mM KCl, 10 mM D-Glucose, 2 mM CaCl2, 1 mM MgCl2, 10 mM HEPES, pH 7.4 adjusted with NaOH) twice. • Add 1st loading solution containing 10 microM PTS18 and 0.06% Pluronic F-127 in assay buffer. • Incubate the plate at rt in dark for 1 hour. • Remove 1st loading solution and add 2nd loading solution containing 12.5 microM DiSBAC2(3), 1.25 mM Xylene Fast Yellow and 0.0075% Pluronic F-127 in assay buffer. • Place the plate under the dark at rt for 25 minutes. • Add compound solutions into the assay plate. • Set the assay plate in FDSS and place an EFS device on the plate. • Measure EFS-induced fluorescent response by FDSS.
The data are analyzed and reported as normalized ratios of intensities measured at […]. The process of calculating these ratios is performed as follows:
This analysis is performed using a computerized specific program designed for FDSS generated data. Fluorescence ratio values are plotted using XLfit to determine an IC50 value for each compound.

[2] = target: T1, human Nav1.8 channels (Homo sapiens, UniProt Q9Y5Y9); assay: FRET assay (FDSS membrane potential); conditions: HEK293 cells expressing human Nav1.8 channels, read-out: IC50 against Nav1.8
T1 construct: expressed in transfected cells; host or cells: HEK293 cells
Method: (§1) This screen is used to determine the effects of compounds on human Nav1.8, and human Nav1.5 channels, utilizing the cell imaging technology by Hamamatsu Photonics's Functional Drug Screening System (FDSS). The changes of membrane potential are monitored with fluorescent membrane potential dye pair, DiSBAC2(3) and CC2-DMPE, using FRET technology.
(§2) HEK293 cells expressing human Nav1.8 channels or human Nav1.5 channels are grown in T225 flasks, in a 5% CO2 humidified incubator to about 80% confluence. […]
(§3) The data is analyzed and reported as normalized ratios of intensities measured in the 465 nm and 575 nm channels. The process of calculating these ratios is performed as follows: FR=(FI465 Max/FI575 Min)−(FI465B/FI575B) [Math.2] • “FR”=fluorescence ratio • “FI465B”=the mean of fluorescence intensity as baseline (before Na^+ ligand addition) at 465 nm • “FI575B”=the mean of fluorescence intensity as baseline (before Na^+ ligand addition) at 575 nm • “FI465Max”=maximum fluorescence intensity at 465 nm after Na^+ stimulation • “FI575Min”=minimum fluorescence intensity at 575 nm after Na^+ stimulation Inhibition (%)=100−(FR of each well)−(median FR in positive controls)/(median FR in negative controls)−(median FR in positive controls)×100 [Math.3] […]

[3] = target: T2, human Nav1.5 channels (Homo sapiens, UniProt Q14524); assay: FRET assay (FDSS membrane potential); conditions: HEK293 cells expressing human Nav1.5 channels, read-out: activity (IC50) against Nav1.5
T2 construct: expressed in transfected cells; host or cells: HEK293 cells
Method: as §1, §2, §3

Chain of Nav1.7 (Q15858 whole entry): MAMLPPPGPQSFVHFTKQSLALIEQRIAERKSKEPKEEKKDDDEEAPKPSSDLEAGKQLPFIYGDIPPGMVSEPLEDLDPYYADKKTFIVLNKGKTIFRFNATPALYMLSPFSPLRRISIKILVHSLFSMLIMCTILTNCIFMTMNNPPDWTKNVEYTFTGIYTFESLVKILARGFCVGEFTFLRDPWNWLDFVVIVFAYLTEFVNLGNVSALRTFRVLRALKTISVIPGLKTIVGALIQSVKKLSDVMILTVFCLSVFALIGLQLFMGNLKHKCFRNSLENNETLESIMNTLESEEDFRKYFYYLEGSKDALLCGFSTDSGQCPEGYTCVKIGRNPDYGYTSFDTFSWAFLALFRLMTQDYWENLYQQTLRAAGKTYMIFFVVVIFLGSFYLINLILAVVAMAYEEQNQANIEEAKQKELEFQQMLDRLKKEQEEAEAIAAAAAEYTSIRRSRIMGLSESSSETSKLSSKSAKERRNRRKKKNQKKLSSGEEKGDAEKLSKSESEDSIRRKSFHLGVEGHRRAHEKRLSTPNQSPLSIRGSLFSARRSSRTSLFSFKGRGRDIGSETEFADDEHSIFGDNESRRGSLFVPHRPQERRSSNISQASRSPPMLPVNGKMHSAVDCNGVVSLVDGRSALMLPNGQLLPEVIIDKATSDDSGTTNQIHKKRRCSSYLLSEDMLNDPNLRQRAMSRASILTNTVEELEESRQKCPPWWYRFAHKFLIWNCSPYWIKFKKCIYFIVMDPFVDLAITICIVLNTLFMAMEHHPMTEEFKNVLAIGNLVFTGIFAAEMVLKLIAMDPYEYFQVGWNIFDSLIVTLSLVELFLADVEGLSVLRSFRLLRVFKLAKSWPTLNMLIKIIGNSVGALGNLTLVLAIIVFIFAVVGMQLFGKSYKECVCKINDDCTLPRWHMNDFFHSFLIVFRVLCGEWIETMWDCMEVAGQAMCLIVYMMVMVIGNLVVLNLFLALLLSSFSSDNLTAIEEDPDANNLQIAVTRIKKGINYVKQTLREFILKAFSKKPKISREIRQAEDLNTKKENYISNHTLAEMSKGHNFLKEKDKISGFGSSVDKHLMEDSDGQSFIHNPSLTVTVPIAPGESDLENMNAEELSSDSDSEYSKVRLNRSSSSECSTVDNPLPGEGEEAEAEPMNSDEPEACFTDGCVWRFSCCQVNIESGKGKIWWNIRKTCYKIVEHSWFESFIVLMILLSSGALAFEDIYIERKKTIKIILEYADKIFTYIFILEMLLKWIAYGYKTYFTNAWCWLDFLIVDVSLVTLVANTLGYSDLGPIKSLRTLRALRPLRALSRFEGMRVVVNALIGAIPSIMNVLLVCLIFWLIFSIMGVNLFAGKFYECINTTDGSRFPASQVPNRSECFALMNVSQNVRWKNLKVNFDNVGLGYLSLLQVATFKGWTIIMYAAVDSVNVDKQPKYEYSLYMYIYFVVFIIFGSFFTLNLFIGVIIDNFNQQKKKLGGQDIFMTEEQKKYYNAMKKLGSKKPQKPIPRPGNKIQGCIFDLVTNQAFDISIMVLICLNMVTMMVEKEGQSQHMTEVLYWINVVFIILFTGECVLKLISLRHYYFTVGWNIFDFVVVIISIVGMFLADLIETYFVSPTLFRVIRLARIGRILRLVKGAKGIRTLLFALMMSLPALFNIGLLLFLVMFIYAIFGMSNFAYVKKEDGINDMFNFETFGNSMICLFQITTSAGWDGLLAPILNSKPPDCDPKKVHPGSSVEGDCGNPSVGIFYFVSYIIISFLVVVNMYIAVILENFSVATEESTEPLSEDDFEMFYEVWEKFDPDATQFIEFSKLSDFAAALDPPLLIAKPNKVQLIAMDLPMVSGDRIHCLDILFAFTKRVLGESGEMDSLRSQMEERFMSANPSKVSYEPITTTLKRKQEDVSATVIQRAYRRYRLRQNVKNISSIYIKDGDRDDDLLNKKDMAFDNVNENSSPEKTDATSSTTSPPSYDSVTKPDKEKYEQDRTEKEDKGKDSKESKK
T1 sequence (Q9Y5Y9 whole entry): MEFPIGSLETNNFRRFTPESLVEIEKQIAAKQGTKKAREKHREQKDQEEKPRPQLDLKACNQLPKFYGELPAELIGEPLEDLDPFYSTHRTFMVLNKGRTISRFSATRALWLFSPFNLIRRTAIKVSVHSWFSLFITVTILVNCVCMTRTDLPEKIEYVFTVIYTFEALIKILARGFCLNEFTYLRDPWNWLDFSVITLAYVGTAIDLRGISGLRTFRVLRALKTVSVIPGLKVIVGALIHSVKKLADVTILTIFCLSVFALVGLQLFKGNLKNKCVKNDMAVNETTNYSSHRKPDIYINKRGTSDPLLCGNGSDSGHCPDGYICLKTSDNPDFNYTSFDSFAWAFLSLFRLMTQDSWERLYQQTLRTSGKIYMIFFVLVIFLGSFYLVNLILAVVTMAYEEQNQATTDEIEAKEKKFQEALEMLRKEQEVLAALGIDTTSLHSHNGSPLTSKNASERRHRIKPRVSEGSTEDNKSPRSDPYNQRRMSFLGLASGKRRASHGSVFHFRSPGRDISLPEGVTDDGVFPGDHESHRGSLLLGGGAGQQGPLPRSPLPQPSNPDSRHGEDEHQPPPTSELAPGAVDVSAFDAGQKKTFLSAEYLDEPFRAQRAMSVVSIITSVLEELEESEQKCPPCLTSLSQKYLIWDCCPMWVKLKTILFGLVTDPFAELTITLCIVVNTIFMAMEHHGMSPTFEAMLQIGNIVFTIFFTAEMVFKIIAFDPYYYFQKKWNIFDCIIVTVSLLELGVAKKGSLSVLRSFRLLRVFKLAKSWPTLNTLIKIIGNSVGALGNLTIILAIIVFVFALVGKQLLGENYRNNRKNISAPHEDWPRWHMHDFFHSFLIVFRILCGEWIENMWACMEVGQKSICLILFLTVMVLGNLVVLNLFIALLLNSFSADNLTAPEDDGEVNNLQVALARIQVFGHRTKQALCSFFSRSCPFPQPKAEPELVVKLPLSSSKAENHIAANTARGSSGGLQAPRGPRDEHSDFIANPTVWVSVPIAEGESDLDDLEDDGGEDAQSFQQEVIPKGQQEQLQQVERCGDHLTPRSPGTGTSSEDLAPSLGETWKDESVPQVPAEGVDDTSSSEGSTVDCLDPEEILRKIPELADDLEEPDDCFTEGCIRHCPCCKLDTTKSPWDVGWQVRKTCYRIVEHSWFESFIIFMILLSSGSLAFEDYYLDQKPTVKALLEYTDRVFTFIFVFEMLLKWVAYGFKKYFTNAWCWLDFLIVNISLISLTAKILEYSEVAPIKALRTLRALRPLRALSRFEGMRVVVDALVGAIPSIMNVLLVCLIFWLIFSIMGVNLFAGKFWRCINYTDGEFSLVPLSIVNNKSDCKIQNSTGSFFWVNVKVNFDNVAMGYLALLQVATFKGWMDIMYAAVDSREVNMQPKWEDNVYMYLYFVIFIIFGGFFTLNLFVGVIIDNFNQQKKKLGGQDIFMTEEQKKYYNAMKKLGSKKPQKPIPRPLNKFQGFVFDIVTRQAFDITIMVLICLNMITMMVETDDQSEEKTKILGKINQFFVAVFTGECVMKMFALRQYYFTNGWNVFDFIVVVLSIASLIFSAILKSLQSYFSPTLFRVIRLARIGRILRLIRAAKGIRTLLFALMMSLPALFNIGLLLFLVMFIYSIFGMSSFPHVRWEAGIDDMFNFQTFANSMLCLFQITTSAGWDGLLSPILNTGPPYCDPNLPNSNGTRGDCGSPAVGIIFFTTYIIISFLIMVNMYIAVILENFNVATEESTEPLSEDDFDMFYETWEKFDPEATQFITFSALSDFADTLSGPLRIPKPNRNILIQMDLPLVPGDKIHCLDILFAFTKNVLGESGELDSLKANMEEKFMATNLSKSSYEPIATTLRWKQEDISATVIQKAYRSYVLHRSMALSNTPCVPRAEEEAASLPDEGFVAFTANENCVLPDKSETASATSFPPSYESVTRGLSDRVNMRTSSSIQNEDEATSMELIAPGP

- IC50 [1]: < 0.5 µM
- IC50 [2]: 2 µM
SMILES: O=C(N[C@@H]1CCCN(c2ncc(C(F)(F)F)cc2Cl)C1)c1ccnc(NC(=O)C2CC2)c1 [Example 7]
- IC50 [3]: > 30 µM
